# According to patent US5674979A, “Agent for inhibiting symmetrical proteins, in particular enzymes” (priority 1989, dated 1997):
# Where two headings read alike, the source gives them in different places. Non-standard residues stand in square brackets, D forms with d. Residues, ends and D or L forms follow the SMILES beside them.
# What was measured:
# [1] = tested on: HIV-1; conditions: H9 cells
# Description: Compounds (a), (b), (c), (d) were tested in the molarity range from 0.1 μM to 1000 μM. Infectivity tests were carried out as follows: an HIV-1 suspension containing 10^2 infectious units was absorbed on to 5×10^6 H9 cells in a volume of 1 ml for 2 hours at 4° C. After this time, 9 ml of tissue culture medium with the required inhibitor concentration was added. The medium was exchanged with fresh medium plus inhibitor daily. Two control cultures were also prepared, one without inhibitor to determine the normal virus replication rate, the other containing inhibitor but no virus, to determine whether the substances were cytotoxic for H9 cells. […] The amount of virus antigen produced by the infected cells was measured daily using Elisa for eight days, indicating the amount of HIV-1 antigen in the tissue culture medium. After this, the cells were pelleted, washed in medium without inhibitor, and further incubated in inhibitor-less medium. The antigen production was measured on days 9 and 12 (ie 1 and […] after removal of the inhibitor). Virus production was also measured on days 7, 8, 9, and 12 by determining the amount of reverse transcriptase in the supernatant of the cell medium.
# [2] = tested on: HIV-1
# Description: Infectivity tests were carried out as follows: an HIV-1 suspension containing 10^2 infectious units was absorbed on to 5×10^6 H9 cells in a volume of 1 ml for 2 hours at 4° C. After this time, 9 ml of tissue culture medium with the required inhibitor concentration was added. The medium was exchanged with fresh medium plus inhibitor daily. Two control cultures were also prepared, one without inhibitor to determine the normal virus replication rate, the other containing inhibitor but no virus, to determine whether the substances were cytotoxic for H9 cells. […] The amount of virus antigen produced by the infected cells was measured daily using Elisa for eight days, indicating the amount of HIV-1 antigen in the tissue culture medium. After this, the cells were pelleted, washed in medium without inhibitor, and further incubated in inhibitor-less medium. The antigen production was measured on days 9 and 12 (ie 1 and 3 days after removal of the inhibitor). Virus production was also measured on days 7, 8, 9, and 12 by determining the amount of reverse transcriptase in the supernatant of the cell medium.
# [3] = 0,1 μM, day 9 post infection, no inhibitor (after removal)
# [4] = 0,1 μM, day 12 post infection, no inhibitor (after removal)
# [5] = 1 μM, day 9 post infection, no inhibitor (after removal)
# [6] = 1 μM, day 12 post infection, no inhibitor (after removal)
# [7] = 10 μM, day 9 post infection, no inhibitor (after removal)
# [8] = 10 μM, day 12 post infection, no inhibitor (after removal)
# [9] = 100 μM, day 9 post infection, no inhibitor (after removal)
# [10] = 100 μM, day 12 post infection, no inhibitor (after removal)
# [11] = 1000 μM, day 9 post infection, no inhibitor (after removal)
# [12] = 1000 μM, day 12 post infection, no inhibitor (after removal)
structure (smiles),measurement,setting,value
"CC(C)C[C@@H](NC(=O)[C@H](N)CC(N)=O)C(=O)N[C@@H](C(=O)NCC(=O)O)[C@H](C)O [A, H-(D)-Asn-(D)-Leu-(D)-Thr-Gly-OH] (H-[dN][dL][dT]G-OH)",HIV-1 antigen production as measured in antigen capture ELISA,"[1]; 0,1 μM, day 1 post infection","0,060 o. D."
same,HIV-1 antigen production as measured in antigen capture ELISA,"[1]; 0,1 μM, day 2 post infection","0,066 o. D."
same,HIV-1 antigen production as measured in antigen capture ELISA,"[1]; 0,1 μM, day 3 post infection","0,062 o. D."
same,HIV-1 antigen production as measured in antigen capture ELISA,"[1]; 0,1 μM, day 4 post infection","0,055 o. D."
same,HIV-1 antigen production as measured in antigen capture ELISA,"[1]; 0,1 μM, day 5 post infection","0,058 o. D."
same,HIV-1 antigen production as measured in antigen capture ELISA,"[1]; 0,1 μM, day 6 post infection","0,181 o. D."
same,HIV-1 antigen production as measured in antigen capture ELISA,"[1]; 0,1 μM, day 7 post infection","0,363 o. D."
same,HIV-1 antigen production as measured in antigen capture ELISA,"[1]; 0,1 μM, day 8 post infection","0,478 o. D."
same,HIV-1 antigen production as measured in antigen capture ELISA,[1]; [3],"0,737 o. D."
same,HIV-1 antigen production as measured in antigen capture ELISA,[1]; [4],"1,037 o. D."
same,HIV-1 antigen production as measured in antigen capture ELISA,"[1]; 1 μM, day 1 post infection","0,064 o. D."
same,HIV-1 antigen production as measured in antigen capture ELISA,"[1]; 1 μM, day 2 post infection","0,060 o. D."
same,HIV-1 antigen production as measured in antigen capture ELISA,"[1]; 1 μM, day 3 post infection","0,075 o. D."
same,HIV-1 antigen production as measured in antigen capture ELISA,"[1]; 1 μM, day 4 post infection","0,057 o. D."
same,HIV-1 antigen production as measured in antigen capture ELISA,"[1]; 1 μM, day 5 post infection","0,053 o. D."
same,HIV-1 antigen production as measured in antigen capture ELISA,"[1]; 1 μM, day 6 post infection","0,136 o. D."
same,HIV-1 antigen production as measured in antigen capture ELISA,"[1]; 1 μM, day 7 post infection","0,213 o. D."
same,HIV-1 antigen production as measured in antigen capture ELISA,"[1]; 1 μM, day 8 post infection","0,394 o. D."
same,HIV-1 antigen production as measured in antigen capture ELISA,[1]; [5],"0,694 o. D."
same,HIV-1 antigen production as measured in antigen capture ELISA,[1]; [6],"1,065 o. D."
same,HIV-1 antigen production as measured in antigen capture ELISA,"[1]; 10 μM, day 1 post infection","0,061 o. D."
same,HIV-1 antigen production as measured in antigen capture ELISA,"[1]; 10 μM, day 2 post infection","0,075 o. D."
same,HIV-1 antigen production as measured in antigen capture ELISA,"[1]; 10 μM, day 3 post infection","0,069 o. D."
same,HIV-1 antigen production as measured in antigen capture ELISA,"[1]; 10 μM, day 4 post infection","0,044 o. D."
same,HIV-1 antigen production as measured in antigen capture ELISA,"[1]; 10 μM, day 5 post infection","0,064 o. D."
same,HIV-1 antigen production as measured in antigen capture ELISA,"[1]; 10 μM, day 6 post infection","0,140 o. D."
same,HIV-1 antigen production as measured in antigen capture ELISA,"[1]; 10 μM, day 7 post infection","0,256 o. D."
same,HIV-1 antigen production as measured in antigen capture ELISA,"[1]; 10 μM, day 8 post infection","0,499 o. D."
same,HIV-1 antigen production as measured in antigen capture ELISA,[1]; [7],"0,727 o. D."
same,HIV-1 antigen production as measured in antigen capture ELISA,[1]; [8],"1,003 o. D."
same,HIV-1 antigen production as measured in antigen capture ELISA,"[1]; 100 μM, day 1 post infection","0,068 o. D."
same,HIV-1 antigen production as measured in antigen capture ELISA,"[1]; 100 μM, day 2 post infection","0,064 o. D."
same,HIV-1 antigen production as measured in antigen capture ELISA,"[1]; 100 μM, day 3 post infection","0,065 o. D."
same,HIV-1 antigen production as measured in antigen capture ELISA,"[1]; 100 μM, day 4 post infection","0,053 o. D."
same,HIV-1 antigen production as measured in antigen capture ELISA,"[1]; 100 μM, day 5 post infection","0,057 o. D."
same,HIV-1 antigen production as measured in antigen capture ELISA,"[1]; 100 μM, day 6 post infection","0,070 o. D."
same,HIV-1 antigen production as measured in antigen capture ELISA,"[1]; 100 μM, day 7 post infection","0,361 o. D."
same,HIV-1 antigen production as measured in antigen capture ELISA,"[1]; 100 μM, day 8 post infection","0,374 o. D."
same,HIV-1 antigen production as measured in antigen capture ELISA,[1]; [9],"0,915 o. D."
same,HIV-1 antigen production as measured in antigen capture ELISA,[1]; [10],"1,013 o. D."
same,HIV-1 antigen production as measured in antigen capture ELISA,"[1]; 1000 μM, day 1 post infection","0,087 o. D."
same,HIV-1 antigen production as measured in antigen capture ELISA,"[1]; 1000 μM, day 2 post infection","0,058 o. D."
same,HIV-1 antigen production as measured in antigen capture ELISA,"[1]; 1000 μM, day 3 post infection","0,073 o. D."
same,HIV-1 antigen production as measured in antigen capture ELISA,"[1]; 1000 μM, day 4 post infection","0,054 o. D."
same,HIV-1 antigen production as measured in antigen capture ELISA,"[1]; 1000 μM, day 5 post infection","0,056 o. D."
same,HIV-1 antigen production as measured in antigen capture ELISA,"[1]; 1000 μM, day 6 post infection","0,102 o. D."
same,HIV-1 antigen production as measured in antigen capture ELISA,"[1]; 1000 μM, day 7 post infection","0,286 o. D."
same,HIV-1 antigen production as measured in antigen capture ELISA,"[1]; 1000 μM, day 8 post infection","0,597 o. D."
same,HIV-1 antigen production as measured in antigen capture ELISA,[1]; [11],"0,899 o. D."
same,HIV-1 antigen production as measured in antigen capture ELISA,[1]; [12],"1,054 o. D."
same,Reverse Transkriptase Determination,"[2]; 0,1 μM, day 7 post infection",3929 epm/ml
same,Reverse Transkriptase Determination,"[2]; 0,1 μM, day 8 post infection",6914 epm/ml
same,Reverse Transkriptase Determination,[2]; [3],14455 epm/ml
same,Reverse Transkriptase Determination,[2]; [4],137470 epm/ml
same,Reverse Transkriptase Determination,"[2]; 1 μM, day 7 post infection",4041 epm/ml
same,Reverse Transkriptase Determination,"[2]; 1 μM, day 8 post infection",7460 epm/ml
same,Reverse Transkriptase Determination,[2]; [5],9502 epm/ml
same,Reverse Transkriptase Determination,[2]; [6],163130 epm/ml
same,Reverse Transkriptase Determination,"[2]; 10 μM, day 7 post infection",4615 epm/ml
same,Reverse Transkriptase Determination,"[2]; 10 μM, day 8 post infection",5381 epm/ml
same,Reverse Transkriptase Determination,[2]; [7],12517 epm/ml
same,Reverse Transkriptase Determination,[2]; [8],117910 epm/ml
same,Reverse Transkriptase Determination,"[2]; 100 μM, day 7 post infection",5378 epm/ml
same,Reverse Transkriptase Determination,"[2]; 100 μM, day 8 post infection",6407 epm/ml
same,Reverse Transkriptase Determination,[2]; [9],12893 epm/ml
same,Reverse Transkriptase Determination,[2]; [10],142240 epm/ml
same,Reverse Transkriptase Determination,"[2]; 1000 μM, day 7 post infection",1529 epm/ml
same,Reverse Transkriptase Determination,"[2]; 1000 μM, day 8 post infection",2121 epm/ml
same,Reverse Transkriptase Determination,[2]; [11],1550 epm/ml
same,Reverse Transkriptase Determination,[2]; [12],104660 epm/ml
